# Measured values: ChEMBL document CHEMBL4699438, “Toward the discovery and development of effective modulators of α-synuclein amyloid aggregation” (Eur J Med Chem, 2019)
# How the values were obtained:
# Alpha-synuclein [1] = biological target: T1, Alpha-synuclein (Homo sapiens, UniProt P37840); experiment: Inhibition of wild type alpha-synuclein aggregation (unknown origin) expressed in Escherichia coli BL21 cells incubated for 30 days by thioflavin T based fluorescence assay
# Alpha-synuclein [2] = biological target: T1, Alpha-synuclein; experiment: Inhibition of alpha-synuclein aggregation (unknown origin) expressed in Escherichia coli BL21(DE3) cells assessed as HFIP-induced protein aggregation measured after 16 to 18 hrs by thioflavin T based fluorescence assay relative to control; set-up: scale not given: the % may be the effect or the level left; details: time hrs 16-18
# Alpha-synuclein [3] = biological target: T1, Alpha-synuclein; experiment: Inhibition of alpha-synuclein aggregation (unknown origin) expressed in Escherichia coli BL21(DE3) cells; details: concentration not given here
# Alpha-synuclein [4] = biological target: T1, Alpha-synuclein; experiment: Inhibition of human alpha-synuclein aggregation expressed in Escherichia coli BL21(DE3) cells assessed as percent of un-inhibition measured at 16 hrs by thioflavin T based fluorescence assay relative to control; set-up: concentration or dose not given beside the values
# Alpha-synuclein [5] = biological target: T1, Alpha-synuclein; experiment: Inhibition of human alpha-synuclein filament formation expressed in Escherichia coli BL21(DE3) cells incubated for 72 hrs by thioflavin S based fluorescence assay
# Alpha-synuclein [6] = biological target: T1, Alpha-synuclein; experiment: Inhibition of alpha-synuclein fibril formation (unknown origin) incubated for 24 hrs to 7 days by thioflavin S based fluorescence assay
# Alpha-synuclein [7] = biological target: T1, Alpha-synuclein; experiment: Inhibition of alpha-synuclein aggregation (unknown origin) incubated for 8 days by thioflavin S based fluorescence assay
# Alpha-synuclein [8] = biological target: T1, Alpha-synuclein; experiment: Inhibition of alpha-synuclein fibril formation (unknown origin) incubated for 6 days by thioflavin S based fluorescence assay
# [9] = Elimination half-life in human; type: ADME; details: read-out: beta t1/2 (converted)
# Alpha-synuclein [10] = biological target: T1, Alpha-synuclein; experiment: Inhibition of wild type human alpha-synuclein fibrillization expressed in Escherichia coli BL21(DE3)pLysS by thioflavin-T based fluorescence assay
# [11] = biological target: Amyloid-beta precursor protein (Homo sapiens, UniProt P05067); experiment: Inhibition of amyloid beta (1 to 40) (unknown origin) incubated for 24 hrs to 7 days by thioflavin S based fluorescence assay
# Amyloid-beta precursor protein, sequence (P05067 whole entry): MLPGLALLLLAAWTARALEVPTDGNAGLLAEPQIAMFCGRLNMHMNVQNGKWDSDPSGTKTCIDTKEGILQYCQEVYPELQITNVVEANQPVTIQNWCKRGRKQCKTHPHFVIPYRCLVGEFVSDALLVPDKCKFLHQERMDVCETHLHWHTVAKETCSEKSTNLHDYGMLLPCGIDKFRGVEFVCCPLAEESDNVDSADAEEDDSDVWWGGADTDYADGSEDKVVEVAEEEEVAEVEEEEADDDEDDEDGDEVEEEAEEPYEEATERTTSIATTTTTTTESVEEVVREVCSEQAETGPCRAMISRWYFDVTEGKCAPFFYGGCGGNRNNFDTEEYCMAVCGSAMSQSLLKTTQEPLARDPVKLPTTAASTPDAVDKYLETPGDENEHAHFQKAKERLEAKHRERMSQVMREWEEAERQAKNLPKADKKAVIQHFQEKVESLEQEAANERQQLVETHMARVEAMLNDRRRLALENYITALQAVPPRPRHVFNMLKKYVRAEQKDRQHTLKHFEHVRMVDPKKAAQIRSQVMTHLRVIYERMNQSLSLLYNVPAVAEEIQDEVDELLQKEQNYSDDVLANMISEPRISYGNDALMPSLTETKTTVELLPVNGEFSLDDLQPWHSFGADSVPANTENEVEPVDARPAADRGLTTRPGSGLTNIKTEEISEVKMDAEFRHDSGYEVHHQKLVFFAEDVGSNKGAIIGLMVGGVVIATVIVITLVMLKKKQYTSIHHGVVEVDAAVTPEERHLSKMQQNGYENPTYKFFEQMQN
compound,measurement,setting,value
COc1cc(/C=C/c2cc(/C=C/c3ccc(O)c(OC)c3)n(-c3cccc([N+](=O)[O-])c3)n2)ccc1O,IC50,Alpha-synuclein [1],89.1 µM
CCC(=O)N[C@@H](Cc1c[nH]c2ccccc12)C(=O)N[C@H](C(=O)N1CCC[C@@H]1C(=O)NCC(=O)N[C@@H](CCCCN)C(=O)N[C@@H](Cc1c[nH]c2ccccc12)C(=O)N[C@H](C(=O)NCC(N)=O)[C@@H](C)O)[C@@H](C)CC,Activity,Alpha-synuclein [2],37%
same,inhibition,Alpha-synuclein [3],50%
same,Remaining aggregation (% of control),Alpha-synuclein [4],69%
CC[C@H](C)[C@H](NC(=O)[C@H](CO)NC(=O)[C@H](Cc1c[nH]c2ccccc12)NC(=O)[C@@H](NC(=O)[C@H](CC(C)C)NC(=O)[C@H](CCCCN)NC(=O)[C@@H](N)CCCCN)[C@@H](C)O)C(=O)N1CCC[C@@H]1C(=O)NCC(=O)N[C@@H](CCCCN)C(=O)N[C@@H](CCCCN)C(=O)N[C@@H](Cc1c[nH]c2ccccc12)C(=O)N[C@H](C(=O)N[C@H](C(=O)N[C@@H](CO)C(=O)N[C@@H](C)C(=O)O)C(C)C)[C@@H](C)O,Remaining aggregation (% of control),Alpha-synuclein [4],20%
CC[C@H](C)[C@H](NC(=O)[C@H](Cc1c[nH]c2ccccc12)NC(=O)[C@H](CCCCN)NC(=O)CN)C(=O)N[C@H](C(=O)N[C@H](C(=O)N[C@@H](CO)C(=O)N[C@H](C(=O)N1CCC[C@@H]1C(=O)N1CCC[C@H]1C(=O)N[C@@H](CCCCN)C(=O)N[C@@H](CCCCN)C(=O)N[C@@H](CC(C)C)C(=O)N[C@H](C(=O)N[C@H](C(=O)N[C@@H](Cc1c[nH]c2ccccc12)C(=O)N[C@H](C(=O)N1CCC[C@@H]1C(=O)O)[C@@H](C)CC)C(C)C)[C@@H](C)O)[C@@H](C)CC)C(C)C)[C@@H](C)O,Activity,Alpha-synuclein [2],34%
same,inhibition,Alpha-synuclein [3],65%
CC[C@H](C)[C@H](NC(=O)[C@H](Cc1c[nH]c2ccccc12)NC(=O)[C@H](CCCCN)NC(=O)CNC(=O)[C@H]1CCCN1C(=O)[C@@H](NC(=O)[C@H](Cc1c[nH]c2ccccc12)NC(=O)[C@@H](NC(=O)[C@@H](NC(=O)[C@H](CC(C)C)NC(=O)[C@H](CCCCN)NC(=O)[C@@H](N)CCCCN)[C@@H](C)O)C(C)C)[C@@H](C)CC)C(=O)N[C@H](C(=O)N[C@H](C(=O)N[C@@H](CO)C(=O)N[C@@H](C)C(=O)O)C(C)C)[C@@H](C)O,Activity,Alpha-synuclein [2],27%
same,inhibition,Alpha-synuclein [3],75%
same,Remaining aggregation (% of control),Alpha-synuclein [4],19%
CC[C@H](C)[C@H](NC(=O)[C@H](Cc1c[nH]c2ccccc12)NC(=O)[C@H](CCCCN)NC(=O)CNC(=O)[C@H]1CCCN1C(=O)[C@@H](NC(=O)[C@H](Cc1c[nH]c2ccccc12)NC(=O)[C@@H](NC(=O)[C@@H](NC(=O)[C@H](CC(C)C)NC(=O)[C@H](CS)NC(=O)[C@@H](N)CCCCN)[C@@H](C)O)C(C)C)[C@@H](C)CC)C(=O)N[C@H](C(=O)N[C@H](C(=O)N[C@@H](CS)C(=O)N[C@@H](C)C(=O)O)C(C)C)[C@@H](C)O,Activity,Alpha-synuclein [2],49%
same,inhibition,Alpha-synuclein [3],50%
CC[C@H](C)[C@H](NC(=O)[C@H](Cc1ccc(O)cc1)NC(=O)[C@H](CCCCN)NC(=O)CNC(=O)[C@H]1CCCN1C(=O)[C@@H](NC(=O)[C@H](Cc1ccc(O)cc1)NC(=O)[C@@H](NC(=O)[C@@H](NC(=O)[C@H](CC(C)C)NC(=O)[C@H](CCCCN)NC(=O)[C@@H](N)CCCCN)[C@@H](C)O)C(C)C)[C@@H](C)CC)C(=O)N[C@H](C(=O)N[C@H](C(=O)N[C@@H](CO)C(=O)N[C@@H](C)C(=O)O)C(C)C)[C@@H](C)O,Remaining aggregation (% of control),Alpha-synuclein [4],18%
O=C(O[C@@H]1Cc2c(O)cc(O)cc2O[C@H]1c1ccc(O)c(O)c1)c1cc(O)c(O)c(O)c1 [(-)-CATECHINGALLATE],IC50,Alpha-synuclein [5],21.4 µM
Oc1cc(O)c2c(c1)O[C@H](c1ccc(O)c(O)c1)[C@H](O)C2 [(-)-EPICATECHIN],IC50,Alpha-synuclein [5],29.9 µM
same,IC50,Alpha-synuclein [6],0.8 µM
C[C@]12CCC(=O)C=C1CC[C@@H]1[C@@H]2CC[C@]2(C)C(=O)CC[C@@H]12 [ANDROSTENEDIONE],IC50,Alpha-synuclein [7],85.9 µM
O=c1cc(-c2ccccc2)oc2cc(O)c(O)c(O)c12 [BAICALEIN],IC50,Alpha-synuclein [5],8.2 µM
CC(C)C[C@H]1C(=O)N2CCC[C@H]2[C@]2(O)O[C@](NC(=O)[C@@H]3C=C4c5cccc6[nH]c(Br)c(c56)C[C@H]4N(C)C3)(C(C)C)C(=O)N12 [BROMOCRIPTINE],IC50,Alpha-synuclein [8],24.7 µM
COc1cc(/C=C/c2cc(/C=C/c3ccc(O)c(OC)c3)[nH]n2)ccc1O [CURCUMIN PYRAZOLE],IC50,Alpha-synuclein [1],127 µM
Oc1cc(O)c2cc(O)c(-c3ccc(O)c(O)c3)[o+]c2c1 [CYANIDIN CHLORIDE],IC50,Alpha-synuclein [5],10.3 µM
Oc1cc(O)c2cc(O)c(-c3cc(O)c(O)c(O)c3)[o+]c2c1 [DELPHINIDIN CHLORIDE],IC50,Alpha-synuclein [5],6.5 µM
NCCc1ccc(O)c(O)c1 [DOPAMINE],IC50,Alpha-synuclein [5],7.1 µM
same,IC50,Alpha-synuclein [8],0.53 µM
O=C(O[C@@H]1Cc2c(O)cc(O)cc2O[C@@H]1c1ccc(O)c(O)c1)c1cc(O)c(O)c(O)c1 [EPICATECHIN GALLATE],half-life,[9],3.4 h
same,IC50,Alpha-synuclein [5],9.8 µM
Oc1cc(O)c2c(c1)O[C@H](c1cc(O)c(O)c(O)c1)[C@H](O)C2 [EPIGALLOCATECHIN],IC50,Alpha-synuclein [5],10.6 µM
C[C@]12CC[C@@H]3c4ccc(O)cc4CC[C@H]3[C@@H]1CC[C@@H]2O [ESTRADIOL],IC50,Alpha-synuclein [7],60 µM
C[C@]12CC[C@@H]3c4ccc(O)cc4CC[C@H]3[C@@H]1C[C@@H](O)[C@@H]2O [ESTRIOL],IC50,Alpha-synuclein [7],20.1 µM
C[C@]12CC[C@@H]3c4ccc(O)cc4CC[C@H]3[C@@H]1CCC2=O [ESTRONE],IC50,Alpha-synuclein [7],93.1 µM
COc1cc(/C=C/C(=O)O)ccc1O [FERULATE],IC50,Alpha-synuclein [6],0.75 µM
O=C(O[C@@H]1Cc2c(O)cc(O)cc2O[C@H]1c1cc(O)c(O)c(O)c1)c1cc(O)c(O)c(O)c1 [GALLOCATECHIN GALLATE],IC50,Alpha-synuclein [5],3.6 µM
Oc1cc(O)c2c(c1)O[C@H](c1cc(O)c(O)c(O)c1)[C@@H](O)C2 [GALLOCATECHIN],IC50,Alpha-synuclein [5],8.9 µM
Cc1cc(O)c2c(=O)c3c(O)cc(O)c4c5c(O)cc(O)c6c(=O)c7c(O)cc(C)c8c1c2c(c34)c(c78)c65 [HYPERICIN],IC50,Alpha-synuclein [5],7.5 µM
O=c1cc(-c2ccc(O)c(O)c2)oc2cc(O)cc(O)c12 [LUTEOLIN],IC50,Alpha-synuclein [5],28 µM
CC1=CC(=O)c2ccccc2C1=O [MENADIONE],IC50,Alpha-synuclein [10],15 µM
CC(C)=CCC/C(C)=C/CC/C(C)=C/CC/C(C)=C/CC1=C(C)C(=O)c2ccccc2C1=O [MENATETRENONE],IC50,Alpha-synuclein [10],15 µM
O=c1c(O)c(-c2cc(O)c(O)c(O)c2)oc2cc(O)cc(O)c12 [MYRICETIN],IC50,Alpha-synuclein [5],13.3 µM
same,IC50,Alpha-synuclein [6],0.22 µM
O=C1C=CC(=O)c2ccccc21 [NAPHTHOQUINONE],IC50,Alpha-synuclein [10],15 µM
CC(Cc1ccc(O)c(O)c1)C(C)Cc1ccc(O)c(O)c1 (configuration not stated) [NORDIHYDROGUAIARETIC ACID],IC50,Alpha-synuclein [6],0.22 µM
same,IC50,Alpha-synuclein [7],0.21 µM
CCCN1C[C@H](CSC)C[C@@H]2c3cccc4[nH]cc(c34)C[C@H]21 [PERGOLIDE],IC50,Alpha-synuclein [8],7.9 µM
CC1=C(C/C=C(\C)CCC[C@H](C)CCC[C@H](C)CCCC(C)C)C(=O)c2ccccc2C1=O [PHYTONADIONE],IC50,Alpha-synuclein [10],15 µM
Oc1cc(O)c2c(c1)O[C@H](c1ccc(O)c(O)c1)[C@H](O)[C@H]2c1c(O)cc(O)c2c1O[C@H](c1ccc(O)c(O)c1)[C@@H](O)C2 [PROCYANIDIN B1],IC50,Alpha-synuclein [5],7.3 µM
Oc1cc(O)c2c(c1)O[C@H](c1ccc(O)c(O)c1)[C@H](O)[C@H]2c1c(O)cc(O)c2c1O[C@H](c1ccc(O)c(O)c1)[C@H](O)C2 [PROCYANIDIN B2],IC50,Alpha-synuclein [5],4.3 µM
O=c1c(O)cccc2cc(O)c(O)c(O)c12 [PURPUROGALLIN],IC50,Alpha-synuclein [5],12.9 µM
O=c1c(O)c(-c2ccc(O)c(O)c2)oc2cc(O)cc(O)c12 [QUERCETIN],IC50,Alpha-synuclein [5],20 µM
CC1=C(/C=C/C(C)=C/C=C/C(C)=C/C=O)C(C)(C)CCC1 [RETINAL],IC50,[11],0.18 µM
same,IC50,Alpha-synuclein [6],0.19 µM
CC1=C(/C=C/C(C)=C/C=C/C(C)=C/CO)C(C)(C)CCC1 [RETINOL],IC50,[11],0.18 µM
same,IC50,Alpha-synuclein [6],0.19 µM
CO[C@H]1/C=C/O[C@@]2(C)Oc3c(C)c(O)c4c(O)c(c(/C=N/N5CCN(C)CC5)c(O)c4c3C2=O)NC(=O)/C(C)=C\C=C\[C@H](C)[C@H](O)[C@@H](C)[C@@H](O)[C@@H](C)[C@H](OC(C)=O)[C@@H]1C [RIFAMPIN],IC50,Alpha-synuclein [5],46.2 µM
same,IC50,Alpha-synuclein [6],7.1 µM
O=C(/C=C/c1ccc(O)c(O)c1)O[C@H](Cc1ccc(O)c(O)c1)C(=O)O [ROSMARINIC ACID],IC50,Alpha-synuclein [6],0.21 µM
C#CCN(C)[C@H](C)Cc1ccccc1 [SELEGILINE],IC50,Alpha-synuclein [8],0.27 µM
C[C@]12CC[C@H]3[C@@H](CCC4=CC(=O)CC[C@@]43C)[C@@H]1CC[C@@H]2O [TESTOSTERONE],IC50,Alpha-synuclein [7],96.8 µM
CN(C)[C@@H]1C(O)=C(C(N)=O)C(=O)[C@@]2(O)C(O)=C3C(=O)c4c(O)cccc4[C@@](C)(O)[C@H]3C[C@@H]12 [TETRACYCLINE],IC50,Alpha-synuclein [6],6.06 µM
CC1=C(/C=C/C(C)=C/C=C/C(C)=C/C(=O)O)C(C)(C)CCC1 [TRETINOIN],IC50,[11],0.18 µM
same,IC50,Alpha-synuclein [6],3 µM
H-KKLTVWI-OH,Remaining aggregation (% of control),Alpha-synuclein [4],61%
H-KTWNAAAGKWTE-OH,Remaining aggregation (% of control),Alpha-synuclein [4],81%
